Results: patent US20200131669A1, “CYCLIC PEPTIDE COMPOUND HAVING HIGH MEMBRANE PERMEABILITY, AND LIBRARY CONTAINING SAME” (Chugai Seiyaku Kabushiki Kaisha, priority 2017, published 2020)
Where two headings read alike, the source gives them in different places. Starred links: 1 amine or outer side, 2 acyl side, 3 side chain; linkers in the order of their positions; H or OH if unused. Positions of bridges follow the written chain, without caps; N, C: chain ends. Non-standard residues stand in square brackets, D forms with d. Residues, ends and D or L forms follow the SMILES beside them. ξ: configuration not given here. *: point of attachment. NMePhe(3-Cl) = CN[C@@H](Cc1cccc(Cl)c1)C(=O)O; NMePhe(4-Cl) = CN[C@@H](Cc1ccc(Cl)cc1)C(=O)O; X16 = O=C(C1CCCCC1)[C@H](CC(=O)[*:2])N[*:1]; NMehPhe = CN[C@@H](CCc1ccccc1)C(=O)O; hhPhe = N[C@@H](CCCc1ccccc1)C(=O)O; NMeF = CN[C@@H](Cc1ccccc1)C(=O)O; NMeGABA = CN(CCCC(=O)[*:2])[*:1]; NMeI = CC[C@H](C)[C@H](NC)C(=O)O; hPhe = N[C@@H](CCc1ccccc1)C(=O)O; 4Pal = N[C@@H](Cc1ccncc1)C(=O)O; NMeD = CN[C@@H](CC(=O)O)C(=O)O; NMeL = CN[C@@H](CC(C)C)C(=O)O; ξNMeF = CNC(Cc1ccccc1)C(=O)O; NMeV = CN[C@H](C(=O)O)C(C)C; NMeA = CN[C@@H](C)C(=O)O; Piperidide = C1CCN(*)CC1; dNMeA = CN[C@H](C)C(=O)O; X2 = Fc1cncc(C*)c1; Sar = CNCC(=O)O; tBu = CC(C)(C)*

Assay: Caco-2 membrane permeability, improved method as used in the following Examples (96-well, 20 to 24 h preincubation)
Assay type: in vitro ADME
Conditions: human
Method in brief: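 Caco-2 monolayers were grown three weeks and preincubated 20–24 h at 37 °C with compound in DMEM+FaSSIF (1% DMSO) apically. The assay then used compound in FaSSIF/HBSS (1% DMSO, pH 6.0) apically and HBSS with 4% BSA (pH 7.4) basally. Basal samples were taken at 180 min for LC/MS, and Papp (cm/sec) was calculated.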

Compound | Papp A→B at 180 min (Caco-2, Caco-2 (cm/sec)) [×10⁻⁶ cm/s] | Papp A→B at 180 min (Caco-2, improved method, preincubation 20 to 24 hours, Papp, sample at 180 minutes, read-out: Caco-2) [×10⁻⁶ cm/s]
CC(C)C[C@H]1C(=O)N[C@@H](COC(C)(C)C)C(=O)N(C)[C@@H](Cc2ccccc2)C(=O)N(C)[C@@H](CC(C)C)C(=O)N(C)[C@H](C(=O)N2CCCCC2)CC(=O)N2CCC[C@@H]2C(=O)N(C)[C@@H](Cc2cccc(Cl)c2)C(=O)N[C@@H](C(C)C)C(=O)N(C)[C@@H](C(C)C)C(=O)N[C@@H]([C@@H](C)O)C(=O)N(C)CC(=O)N1C [pd165] ([dP][NMePhe(3-Cl)]V[NMeV]T[Sar][NMeL]S(tBu)[NMeF][NMeL][NMeD]-Piperidide; lactam N-11) | 2.8 | –
CC(C)C[C@H]1C(=O)N[C@@H](COC(C)(C)C)C(=O)N(C)[C@@H](Cc2ccccc2)C(=O)N(C)[C@@H](CC(C)C)C(=O)N(C)[C@H](C(=O)N2CCCCC2)CC(=O)N2CCC[C@H]2C(=O)N(C)[C@@H](Cc2cccc(Cl)c2)C(=O)N[C@@H](C(C)C)C(=O)N(C)[C@@H](C(C)C)C(=O)N[C@@H]([C@@H](C)O)C(=O)N(C)CC(=O)N1C [pd166] (P[NMePhe(3-Cl)]V[NMeV]T[Sar][NMeL]S(tBu)[NMeF][NMeL][NMeD]-Piperidide; lactam N-11) | 3.2 | –
CC(C)C[C@H]1C(=O)N[C@@H](COC(C)(C)C)C(=O)N(C)[C@@H](Cc2ccccc2)C(=O)N(C)[C@@H](CC(C)C)C(=O)N(C)[C@H](C(=O)N2CCCCC2)CC(=O)N(C)[C@H](C)C(=O)N(C)[C@@H](Cc2cccc(Cl)c2)C(=O)N[C@@H](C(C)C)C(=O)N(C)[C@@H](C(C)C)C(=O)N[C@@H]([C@@H](C)O)C(=O)N(C)CC(=O)N1C [pd168] ([dNMeA][NMePhe(3-Cl)]V[NMeV]T[Sar][NMeL]S(tBu)[NMeF][NMeL][NMeD]-Piperidide; lactam N-11) | 2.3 | –
CC(C)C[C@H]1C(=O)N[C@@H](COC(C)(C)C)C(=O)N(C)[C@@H](Cc2ccccc2)C(=O)N(C)[C@@H](CC(C)C)C(=O)N(C)[C@H](C(=O)N2CCCCC2)CC(=O)N(C)[C@@H](C)C(=O)N(C)[C@@H](Cc2cccc(Cl)c2)C(=O)N[C@@H](C(C)C)C(=O)N(C)[C@@H](C(C)C)C(=O)N[C@@H]([C@@H](C)O)C(=O)N(C)CC(=O)N1C [pd169] ([NMeA][NMePhe(3-Cl)]V[NMeV]T[Sar][NMeL]S(tBu)[NMeF][NMeL][NMeD]-Piperidide; lactam N-11) | 3.8 | –
CC[C@H](C)[C@@H]1NC(=O)[C@H](CC(C)C)N(C)C(=O)CCCN(C)C(=O)C[C@@H](C(=O)C2CCCCC2)NC(=O)[C@H](CC(C)C)N(C)C(=O)[C@H](C)N(C)C(=O)[C@H](Cc2ccncc2)NC(=O)[C@H](CC(C)C)N(C)C(=O)[C@H](COC(C)(C)C)NC(=O)[C@H](Cc2cccc(Cl)c2)N(C)C(=O)[C@H](CC(C)C)N(C)C1=O [pd170] (cyclo([4Pal][NMeA][NMeL][X16][NMeGABA][NMeL]I[NMeL][NMePhe(3-Cl)]S(tBu)[NMeL])) | 1.6 | –
CC(C)C[C@@H]1NC(=O)[C@H](CC(C)C)N(C)C(=O)[C@H](C)N(C)C(=O)[C@H]([C@@H](C)O)NC(=O)[C@H](CC(C)C)N(C)C(=O)[C@H](COC(C)(C)C)NC(=O)[C@H](Cc2cccc(Cl)c2)N(C)C(=O)[C@H](CC(C)C)NC(=O)[C@H](C(C)C)N(C)C(=O)[C@@H](C(C)C)NC(=O)C[C@@H](C(=O)N2CCCCC2)NC1=O [pd171] ([dV][NMeV]L[NMePhe(3-Cl)]S(tBu)[NMeL]T[NMeA][NMeL]LD-Piperidide; lactam N-11) | 1.2 | –
CC(C)C[C@@H]1NC(=O)[C@H](CC(C)C)N(C)C(=O)[C@@H](CC(C)C)NC(=O)C[C@@H](C(=O)N2CCCCC2)NC(=O)[C@H](CC(C)C)N(C)C(=O)[C@H](Cc2cccc(Cl)c2)N(C)C(=O)[C@H](Cc2ccncc2)NC(=O)[C@H](CC(C)C)N(C)C(=O)CN(C)C(=O)[C@H]([C@@H](C)O)NC(=O)[C@H](CC(C)C)N(C)C1=O [pd172] ([dL][NMeL]L[NMeL]T[Sar][NMeL][4Pal][NMePhe(3-Cl)][NMeL]D-Piperidide; lactam N-11) | 1.1 | –
CC(C)C[C@@H]1NC(=O)[C@H](C)N(C)C(=O)C[C@@H](C(=O)N2CCCCC2)NC(=O)[C@H](CC(C)C)N(C)C(=O)CN(C)C(=O)[C@H]([C@@H](C)O)NC(=O)[C@H](CC(C)C)N(C)C(=O)[C@H](Cc2ccc(Cl)cc2)N(C)C(=O)[C@H](C)NC(=O)[C@H](Cc2ccccc2)N(C)C(=O)[C@H](CC(C)C)N(C)C1=O [pd173] ([NMeA]L[NMeL][NMeF]A[NMePhe(4-Cl)][NMeL]T[Sar][NMeL]D-Piperidide; lactam N-11) | 1.6 | –
CC(C)C[C@@H]1NC(=O)[C@H](Cc2ccc(Cl)cc2)N(C)C(=O)[C@H](CC(C)C)N(C)C(=O)[C@H](C(C)C)NC(=O)[C@H](C)N(C)C(=O)C[C@@H](C(=O)N2CCCCC2)NC(=O)[C@H](CC(C)C)N(C)C(=O)CN(C)C(=O)[C@H]([C@@H](C)O)NC(=O)[C@H](CC(C)C)N(C)C(=O)[C@H](Cc2ccccc2)N(C)C1=O [pd174] ([NMeA]V[NMeL][NMePhe(4-Cl)]L[NMeF][NMeL]T[Sar][NMeL]D-Piperidide; lactam N-11) | – | 1.3
CC[C@H](C)[C@@H]1NC(=O)[C@H](Cc2ccccc2)N(C)C(=O)CN(C)C(=O)C[C@@H](C(=O)N2CCCCC2)NC(=O)[C@H](C(C)C)N(C)C(=O)[C@H](COC(C)(C)C)NC(=O)[C@H](CC(C)C)N(C)C(=O)[C@H](Cc2ccc(Cl)cc2)N(C)C(=O)CN(C)C(=O)[C@H]([C@@H](C)O)NC(=O)[C@H](CC(C)C)N(C)C1=O [pd175] ([Sar][NMeF]I[NMeL]T[Sar][NMePhe(4-Cl)][NMeL]S(tBu)[NMeV]D-Piperidide; lactam N-11) | 1.1 | –
CC[C@H](C)[C@@H]1NC(=O)[C@H](Cc2ccc(Cl)cc2)N(C)C(=O)CN(C)C(=O)C[C@@H](C(=O)N2CCCCC2)NC(=O)[C@H](C(C)C)N(C)C(=O)[C@H](COC(C)(C)C)NC(=O)[C@H](CC(C)C)N(C)C(=O)[C@H](Cc2ccccc2)N(C)C(=O)CN(C)C(=O)[C@H]([C@@H](C)O)NC(=O)[C@H](CC(C)C)N(C)C1=O [pd176] ([Sar][NMePhe(4-Cl)]I[NMeL]T[Sar][NMeF][NMeL]S(tBu)[NMeV]D-Piperidide; lactam N-11) | 1.2 | –
CC(C)C[C@H]1C(=O)N[C@@H](COC(C)(C)C)C(=O)N(C)[C@@H](Cc2ccccc2)C(=O)N(C)[C@@H](C(C)C)C(=O)N[C@H](C(=O)N2CCCCC2)CC(=O)N[C@H](C(C)C)C(=O)N(C)C(Cc2ccccc2)C(=O)N[C@@H](COCc2cncc(F)c2)C(=O)N(C)[C@@H](CC(C)C)C(=O)N[C@@H]([C@@H](C)O)C(=O)N(C)CC(=O)N1C (stereo partly drawn) [pd180] ([dV][ξNMeF]S(X2)[NMeL]T[Sar][NMeL]S(tBu)[NMeF][NMeV]D-Piperidide; lactam N-11) | 2.4 | –
CC[C@H](C)[C@H]1C(=O)N[C@@H]([C@@H](C)O)C(=O)N(C)CC(=O)N(C)[C@@H](CC(C)C)C(=O)N[C@H](C(=O)N2CCCCC2)CC(=O)N(C)[C@@H](C(C)C)C(=O)N[C@@H](COCc2cncc(F)c2)C(=O)N(C)[C@@H](CC(C)C)C(=O)N(C)[C@@H](Cc2ccccc2)C(=O)N[C@@H](CC(C)C)C(=O)N(C)[C@@H](Cc2ccccc2)C(=O)N1C [pd181] ([NMeV]S(X2)[NMeL][NMeF]L[NMeF][NMeI]T[Sar][NMeL]D-Piperidide; lactam N-11) | 1.1 | –
CC(C)C[C@H]1C(=O)N(C)[C@@H](Cc2ccccc2)C(=O)N[C@@H](COC(C)(C)C)C(=O)N(C)[C@@H](C)C(=O)N[C@H](C(=O)N2CCCCC2)CC(=O)N(C)[C@@H](C)C(=O)N(C)[C@@H](Cc2ccccc2)C(=O)N[C@@H](CCc2ccccc2)C(=O)N(C)[C@@H](CC(C)C)C(=O)N[C@@H]([C@@H](C)O)C(=O)N(C)CC(=O)N1C [pd183] ([NMeA][NMeF][hPhe][NMeL]T[Sar][NMeL][NMeF]S(tBu)[NMeA]D-Piperidide; lactam N-11) | 2.1 | –
CC(C)C[C@H]1C(=O)N(C)[C@@H](CCc2ccccc2)C(=O)N[C@@H](COC(C)(C)C)C(=O)N(C)[C@@H](C)C(=O)N[C@H](C(=O)N2CCCCC2)CC(=O)N(C)[C@@H](C)C(=O)N(C)[C@@H](Cc2ccccc2)C(=O)N[C@@H](CCc2ccccc2)C(=O)N(C)[C@@H](CC(C)C)C(=O)N[C@@H]([C@@H](C)O)C(=O)N(C)CC(=O)N1C [pd184] ([NMeA][NMeF][hPhe][NMeL]T[Sar][NMeL][NMehPhe]S(tBu)[NMeA]D-Piperidide; lactam N-11) | 1.2 | –
CC(C)C[C@H]1C(=O)N[C@@H](COC(C)(C)C)C(=O)N(C)[C@@H](Cc2ccccc2)C(=O)N(C)[C@@H](C)C(=O)N[C@H](C(=O)N2CCCCC2)CC(=O)N[C@H](C(C)C)C(=O)N(C)[C@@H](Cc2ccccc2)C(=O)N[C@@H](CCCc2ccccc2)C(=O)N(C)[C@@H](CC(C)C)C(=O)N[C@@H]([C@@H](C)O)C(=O)N(C)CC(=O)N1C [pd192] ([dV][NMeF][hhPhe][NMeL]T[Sar][NMeL]S(tBu)[NMeF][NMeA]D-Piperidide; lactam N-11) | 1.1 | –
CC(C)C[C@H]1C(=O)N[C@@H](CCCc2ccccc2)C(=O)N(C)[C@@H](Cc2ccccc2)C(=O)N(C)[C@@H](C(C)C)C(=O)N[C@H](C(=O)N2CCCCC2)CC(=O)N[C@H](C)C(=O)N(C)C(Cc2ccccc2)C(=O)N[C@@H](C(C)C)C(=O)N(C)[C@@H](CC(C)C)C(=O)N[C@@H]([C@@H](C)O)C(=O)N(C)CC(=O)N1C (stereo partly drawn) [pd193] ([dA][ξNMeF]V[NMeL]T[Sar][NMeL][hhPhe][NMeF][NMeV]D-Piperidide; lactam N-11) | 1 | –
